Data taken from patent US11162944B2, “Compositions and methods” (priority 2015, dated 2021).
Marks after values point to notes of the source that are not given here.

Columns and labels:
[1] = system: biomarker (antibody) in serum from patients with suspected TB (tuberculosis); experiment: ELISA of 64 serum samples on three synthetic antigens (Example 6); type: binding, human; details: dilution 1 in 80
Description: ELISA assays were carried out as known to those practiced in the art using 96 well plates. In the first procedure, the ELISA assay was carried out on 96-well microplates and the purified antigens were dissolved in n-hexane at a concentration of 62.5 μg/mL. The antigen solution was diluted and 50 μL was placed in each well. The plates were left to dry at room temperature overnight. Blocking was done with 0.5% casein/PBS (400 μL/well) and the plates were left to incubate at 25° C. for 1 h. The casein was aspirated using the LT-3500 plate washer and the plates flicked dry. Then the serum (1:20 dilution in 0.5% casein/PBS, pH 7.4) was added to the plate (50 μL/well) and left to incubate at 25° C. for 1 h. The serum was aspirated and washed three times with (casein/PBS, 400 μL/well) using the same plate washer and the plates were flicked dry again. After that, the secondary antibody, in the example given IgG Fc (1:1000 dilution in 0.5% casein/PBS) was added to the plate (50 μL/well) and the plates were left to incubate at 25° C. for 30 min. The plates were washed three times again with casein/PBS (400 μL/well) and dried. Then, the OPD substrate was added to the plates, which were left to incubate at 25° C. for 30 min. Finally, 2.5 M H2SO4 (50 μL/well) was added and the absorbances of each well were read at 492, 450 and 630 nm using an LT-4000 plate reader.
Human serum used in this work was from the WHO sample bank. In this case, all the patients had presented at a hospital with the symptoms of TB. Clinical diagnosis was made on the basis of a series of standard assays.
All measurements were taken as four replicates unless otherwise stated. These were averaged to provide the data in the tables which are for the value at 492 nm.
A set of 64 samples of serum from patients attending a clinic with suspected TB (tuberculosis) in a high burden TB population was examined using ELISA. Samples 1-9 had been diagnosed as positive for infection with tuberculosis (TB+) on the basis of a range of assays including sputum smear and culture, and samples 10-64 as negative for infection with tuberculosis (TB−). An ELISA assay was carried out with three synthetic antigens having the structures:
Cut-off values were set to identify all the positive samples with all three antigens, and the false positives were then identified in Table 3. […] 53 of the 55 negatives were correctly identified giving a specificity of 96%. The shaded results denote a result which is above the cut-off set for that particular antigen assay.

[2] = system: wild-type BMDCs; experiment: IL-6 secretion by bone marrow-derived dendritic cells, cytokine-specific ELISA; type: cell-based, mice; details: antigens at 100 μg/ml coated on plate, ISO as solvent, FIG. 1
Description: The concentrations of cytokines in the cell-free medium from stimulation of bone marrow-derived dendritic cells were determined using standard cytokine-specific ELISA. BMDCs were generated from mice, by flushing out the femurs of mice into complete medium and pipetting vigorously to make a single-cell suspension. The glycolipids were coated to the bottom of 96 micro-well plates (100 μg/ml). BMDCs were added, and after 6 or 48 hours of incubation the supernatants were harvested.
The first experiment was the IL-6 secretion by wild-type BMDCs from mice using compounds B, D, C and H (shown below) as antigens at 100 μg/ml, and isopropyl alcohol (ISO) as a solvent. Commercial trehalose-6,6-dimycolate (TDM), lipopolysaccharides (LPS), and trehalose-6,6-dibehenate (TDB) were used as a controls.

SMILES: CCCCCCCCCCCCCCCCCCCCCCCC[C@@H](C(=O)OC[C@H]1O[C@H](OC)[C@@H](O)[C@@H]1O)[C@H](O)CCCCCCCCCCCC1CC1CCCCCCCCCCCCCC[C@H]1C[C@H]1CCCCCCCCCCCCCCCCCCCC (some centres unmarked) [Antigen 3]
- ELISA absorbance at 492 nm ([1]; sample 1 (TB+)): 0.74*
- ELISA absorbance at 492 nm ([1]; sample 2 (TB+)): 0.76*
- ELISA absorbance at 492 nm ([1]; sample 3 (TB+)): 0.99*
- ELISA absorbance at 492 nm ([1]; sample 4 (TB+)): 0.97*
- ELISA absorbance at 492 nm ([1]; sample 5 (TB+)): 0.99*
- ELISA absorbance at 492 nm ([1]; sample 6 (TB+)): 1.39*
- ELISA absorbance at 492 nm ([1]; sample 7 (TB+)): 1.97*
- ELISA absorbance at 492 nm ([1]; sample 8 (TB+)): 1.67*
- ELISA absorbance at 492 nm ([1]; sample 9 (TB+)): 1.09*
- ELISA absorbance at 492 nm ([1]; sample 10 (TB−)): 0.59
- ELISA absorbance at 492 nm ([1]; sample 11 (TB−)): 0.92*
- ELISA absorbance at 492 nm ([1]; sample 12 (TB−)): 0.84*
- ELISA absorbance at 492 nm ([1]; sample 13 (TB−)): 0.60
- ELISA absorbance at 492 nm ([1]; sample 14 (TB−)): 1.30*
- ELISA absorbance at 492 nm ([1]; sample 15 (TB−)): 0.64
- ELISA absorbance at 492 nm ([1]; sample 16 (TB−)): 0.56
- ELISA absorbance at 492 nm ([1]; sample 17 (TB−)): 0.81*
- ELISA absorbance at 492 nm ([1]; sample 18 (TB−)): 0.68
- ELISA absorbance at 492 nm ([1]; sample 19 (TB−)): 0.71*
- ELISA absorbance at 492 nm ([1]; sample 20 (TB−)): 1.03*
- ELISA absorbance at 492 nm ([1]; sample 21 (TB−)): 0.61
- ELISA absorbance at 492 nm ([1]; sample 22 (TB−)): 0.66
- ELISA absorbance at 492 nm ([1]; sample 23 (TB−)): 0.81*
- ELISA absorbance at 492 nm ([1]; sample 24 (TB−)): 0.62
- ELISA absorbance at 492 nm ([1]; sample 25 (TB−)): 0.21
- ELISA absorbance at 492 nm ([1]; sample 26 (TB−)): 0.72*
- ELISA absorbance at 492 nm ([1]; sample 27 (TB−)): 0.61
- ELISA absorbance at 492 nm ([1]; sample 28 (TB−)): 0.38
- ELISA absorbance at 492 nm ([1]; sample 29 (TB−)): 0.41
- ELISA absorbance at 492 nm ([1]; sample 30 (TB−)): 0.39
- ELISA absorbance at 492 nm ([1]; sample 31 (TB−)): 0.51
- ELISA absorbance at 492 nm ([1]; sample 32 (TB−)): 0.91*
- ELISA absorbance at 492 nm ([1]; sample 33 (TB−)): 0.42
- ELISA absorbance at 492 nm ([1]; sample 34 (TB−)): 0.49
- ELISA absorbance at 492 nm ([1]; sample 35 (TB−)): 0.38
- ELISA absorbance at 492 nm ([1]; sample 36 (TB−)): 0.28
- ELISA absorbance at 492 nm ([1]; sample 37 (TB−)): 0.55
- ELISA absorbance at 492 nm ([1]; sample 38 (TB−)): 0.52
- ELISA absorbance at 492 nm ([1]; sample 39 (TB−)): 0.35
- ELISA absorbance at 492 nm ([1]; sample 40 (TB−)): 0.35
- ELISA absorbance at 492 nm ([1]; sample 41 (TB−)): 0.66
- ELISA absorbance at 492 nm ([1]; sample 42 (TB−)): 0.55
- ELISA absorbance at 492 nm ([1]; sample 43 (TB−)): 0.30
- ELISA absorbance at 492 nm ([1]; sample 44 (TB−)): 0.98*
- ELISA absorbance at 492 nm ([1]; sample 45 (TB−)): 0.43
- ELISA absorbance at 492 nm ([1]; sample 46 (TB−)): 0.31
- ELISA absorbance at 492 nm ([1]; sample 47 (TB−)): 0.56
- ELISA absorbance at 492 nm ([1]; sample 48 (TB−)): 0.32
- ELISA absorbance at 492 nm ([1]; sample 49 (TB−)): 0.51
- ELISA absorbance at 492 nm ([1]; sample 50 (TB−)): 0.37
- ELISA absorbance at 492 nm ([1]; sample 51 (TB−)): 0.21
- ELISA absorbance at 492 nm ([1]; sample 52 (TB−)): 0.36
- ELISA absorbance at 492 nm ([1]; sample 53 (TB−)): 0.26
- ELISA absorbance at 492 nm ([1]; sample 54 (TB−)): 0.27
- ELISA absorbance at 492 nm ([1]; sample 55 (TB−)): 0.27
- ELISA absorbance at 492 nm ([1]; sample 56 (TB−)): 0.73*
- ELISA absorbance at 492 nm ([1]; sample 57 (TB−)): 0.37
- ELISA absorbance at 492 nm ([1]; sample 58 (TB−)): 0.41
- ELISA absorbance at 492 nm ([1]; sample 59 (TB−)): 0.45
- ELISA absorbance at 492 nm ([1]; sample 60 (TB−)): 0.44
- ELISA absorbance at 492 nm ([1]; sample 61 (TB−)): 0.41
- ELISA absorbance at 492 nm ([1]; sample 62 (TB−)): 0.30
- ELISA absorbance at 492 nm ([1]; sample 63 (TB−)): 0.25
- ELISA absorbance at 492 nm ([1]; sample 64 (TB−)): 0.29

SMILES: CCCCCCCCCCCCCCCCCCCCCCCCC(C(=O)OCC1OC(OCC2OC(OC)C(O)C2OC2OC(COC(=O)C(CCCCCCCCCCCCCCCCCCCCCCCC)C(O)CCCCCCCCCCCC3CC3CCCCCCCCCCCCCCC3CC3CCCCCCCCCCCCCCCCCCCC)C(O)C2O)C(O)C1O)C(O)CCCCCCCCCCCC1CC1CCCCCCCCCCCCCCC1CC1CCCCCCCCCCCCCCCCCCCC (centres unmarked) [H]
- IL-6 secretion by wild-type BMDCs [2]: good level of stimulation
